Patent US7718641B2, “Pyrrolo [3,4-H] isoquinoline compounds and methods for modulating gated ion channels” (Aros Pharma ApS, priority 2005, dated 2010)

Molecular target: T1, heteromeric hASIC1a+3 (Homo sapiens, UniProt P78348+Q9UHC3)
T1 sequence (P78348 1-528): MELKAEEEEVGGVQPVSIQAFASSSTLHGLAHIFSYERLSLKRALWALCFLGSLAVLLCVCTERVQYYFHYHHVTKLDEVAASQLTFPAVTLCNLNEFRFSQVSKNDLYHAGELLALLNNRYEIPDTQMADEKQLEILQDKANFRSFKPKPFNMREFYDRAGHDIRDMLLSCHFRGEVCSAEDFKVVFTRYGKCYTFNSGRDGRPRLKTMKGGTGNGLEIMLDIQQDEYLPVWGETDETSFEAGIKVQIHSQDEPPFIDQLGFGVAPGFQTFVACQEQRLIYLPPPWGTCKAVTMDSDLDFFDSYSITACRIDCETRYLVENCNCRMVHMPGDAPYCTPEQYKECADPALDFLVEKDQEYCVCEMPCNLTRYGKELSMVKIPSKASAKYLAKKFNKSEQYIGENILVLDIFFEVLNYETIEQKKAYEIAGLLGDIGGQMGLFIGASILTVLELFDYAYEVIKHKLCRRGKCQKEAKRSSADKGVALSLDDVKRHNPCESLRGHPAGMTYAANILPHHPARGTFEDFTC
T1 sequence (Q9UHC3 1-531): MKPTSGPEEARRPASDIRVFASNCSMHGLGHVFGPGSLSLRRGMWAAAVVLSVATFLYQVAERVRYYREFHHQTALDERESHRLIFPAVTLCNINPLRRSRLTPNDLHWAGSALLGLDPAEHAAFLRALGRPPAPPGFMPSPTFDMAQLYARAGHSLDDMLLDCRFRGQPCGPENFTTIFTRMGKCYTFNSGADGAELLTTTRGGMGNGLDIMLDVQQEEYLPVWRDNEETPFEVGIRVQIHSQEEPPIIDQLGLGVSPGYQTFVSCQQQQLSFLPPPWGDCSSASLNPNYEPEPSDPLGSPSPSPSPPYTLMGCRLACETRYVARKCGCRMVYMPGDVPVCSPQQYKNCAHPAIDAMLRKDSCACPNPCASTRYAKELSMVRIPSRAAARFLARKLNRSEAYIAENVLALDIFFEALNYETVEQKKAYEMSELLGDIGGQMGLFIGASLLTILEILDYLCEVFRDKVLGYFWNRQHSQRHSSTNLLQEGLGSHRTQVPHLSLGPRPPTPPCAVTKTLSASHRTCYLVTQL
Test: Whole-cell patch clamp of HEK293 cells co-expressing hASIC1a and hASIC3
Format: cell-based
Set-up: expressed in transfected cells; host or cells: HEK293
Settings: 10 μM, HEK293, -60 mV, pH 7.4 to pH 6.5 for 5 sec, n=3
Procedure: HEK293 cells were transfected either with hASIC1a alone or co-transfected with hASIC1a and hASIC3. Acid-induced inward currents were recorded in the presence and absence of compound A (10 μM) using the whole-cell configuration of the patch-clamp method (voltage clamp mode).
All experiments are performed at room temperature (20-25° C.) in voltage clamp using conventional whole cell patch clamp methods (Neher, E., et al. (1978) Pfluegers Arch 375:219-228).
Coverslips with the cells are transferred to a 15 μl experimental chamber mounted on the stage of an inverted microscope (IMT-2, Olympus) supplied with Nomarski optics. […] The cells are held at a holding voltage of −60 mV and at the start of each experiment the current is continuously measured for 45 s to ensure a stable baseline. […] Current amplitudes are measured at the peak of the responses, and effect of the compounds is calculated as the amplitude at compound equilibrium divided by the amplitude of the current evoked by the pulse just before the compound was included. […]
FIGS. 4A and 4B show response to acidic saline in the absence or presence of 10 μM of Compound A recorded from HEK293 cells expressing either hASIC1a alone or HEK293 cells co-expressing hASIC1a and hASIC3 [voltage clamped at −60 mV, extracellular solution surrounding cells was changed rapidly from pH 7.4 to pH 6.5 for 5 sec] […]

- effect on acid-induced inward current, hASIC1a and hASIC3 co-expressed: effectively modulates the activity
Structure (SMILES): COc1ccc(F)cc1-c1cc2c(c3c1CCN(C)C3)NC(=O)/C2=N/O [Compound A, 5-(5-fluoro-2-methoxyphenyl)-6,7,8,9-tetrahydro-3-(hydroxyimino)-8-methyl-1H-pyrrolo[3,2-h]isoquinoline-2(3H)-one]
